The values below come from publication PMC12640663 (Chemmedchem, 2025).

Structures are written as SMILES. Where “and” joins values, the source holds several entries; their conditions need not be identical. Identical values can stand only once. Entries after “also recorded” stand apart in the source; their conditions may differ.

The target in one data set is T1, hPTP1B1–285 (Homo sapiens, UniProt P18031).
T1 construct: hPTP1B1–285 (the short form with an N‐terminal catalytic domain)
T1 sequence (P18031 1-285): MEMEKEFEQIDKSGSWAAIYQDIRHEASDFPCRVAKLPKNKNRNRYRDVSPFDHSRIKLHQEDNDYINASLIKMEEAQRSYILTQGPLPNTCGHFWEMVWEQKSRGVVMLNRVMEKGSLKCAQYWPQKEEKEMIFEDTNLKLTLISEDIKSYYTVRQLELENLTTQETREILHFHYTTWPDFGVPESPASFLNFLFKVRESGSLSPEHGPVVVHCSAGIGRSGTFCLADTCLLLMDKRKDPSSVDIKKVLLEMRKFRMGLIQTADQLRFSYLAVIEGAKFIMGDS
Put plainly: PTP1B activity assay, short form hPTP1B1–285 (p‐NPP). Particulars: ± S.D; p‐NPP substrate, 15 min at 37 °C. Format: biochemical. On the procedure: (§1) The inhibitory activity of PTP1B was assessed using two enzyme variants: hPTP1B1–285 (the short form with an N‐terminal catalytic domain) and hPTP1B1–400 (the long form with an intrinsically disordered C‐terminal regulatory domain). […] According to Coronel‐Tovar et al., the disordered region of the C‐terminal domain plays a crucial role in modulating PTP1B enzymatic activity.^[ [30] ^] […] Different concentrations of the compounds were evaluated to determine their IC50 values (Table 1 ).
To do so, these terpenoids were tested against hPTP1B1–285.
(§2) Recombinant human protein tyrosine phosphatase 1B, consisting of 400 and 285 amino acid residues, was used.^[ [35] ^] […] Aliquots of 0–10 µL of the test compounds (triplicate) were taken and incubated for 15 min at 37 °C with 85 µL of Tris buffer solution (50 mM, pH 6.8) containing PTP1B enzyme and 5 µL of p‐nitrophenyl phosphate substrate (p‐NPP, 10 mM). Absorbance was then measured at a wavelength of 405 nm. The inhibitory activity was determined according to Equation (1). (1) % PTP1B=(A405b/A405c)×100 where % PTP1B: Is the percentage of inhibition. A 405c: Is the corrected absorbance of the blank (A 405initial–A 405final). A 405b: Is the corrected absorbance of the compounds (A 405control–A 405compound).

The target of a further data set is T2, TCPTP (Homo sapiens, UniProt P17706).
T2 sequence (P17706 1-415): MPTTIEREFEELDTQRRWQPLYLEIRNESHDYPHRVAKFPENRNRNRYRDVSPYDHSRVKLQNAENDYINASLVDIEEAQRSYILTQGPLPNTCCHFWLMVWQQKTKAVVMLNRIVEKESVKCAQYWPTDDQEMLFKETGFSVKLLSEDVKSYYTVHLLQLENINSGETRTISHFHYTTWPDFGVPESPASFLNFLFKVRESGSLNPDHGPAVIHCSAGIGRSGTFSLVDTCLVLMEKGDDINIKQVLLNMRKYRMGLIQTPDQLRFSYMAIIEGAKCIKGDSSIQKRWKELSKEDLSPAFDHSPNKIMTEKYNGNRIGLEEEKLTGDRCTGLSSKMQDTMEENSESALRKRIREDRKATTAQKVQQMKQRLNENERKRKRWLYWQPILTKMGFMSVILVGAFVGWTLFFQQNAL
Put plainly: T‐cell protein tyrosine phosphatase (TCPTP) activity assay (p‐NPP). The conditions noted are these: for IC50: ± S.D, assessed up to 100 μM, read-out: TCPTP IC50; for TCPTP inhibition (in words): up to 100 μM. Format: biochemical. On the procedure: The effectiveness and safety of protein tyrosine phosphatase (PTP) inhibitors depend on their specificity. PTP1B and TCPTP serve different functions: PTP1B is involved in metabolism and cancer, while TCPTP regulates immune function. Inhibiting TCPTP could impact the immune response, whereas inhibiting PTP1B may benefit metabolic diseases without these side effects.^[ [20] ^, [34] ^, [35] ^] […] These compounds were assessed up to 100 μM (Table 1).
TCPTP enzyme reported by Mendoza et al. was used for this assay. […] Aliquots of 0–10 µL (triplicate) of the newly synthesized compounds, positive control, and solvent were taken. These were incubated with 85 µL of enzyme solution (Tris, 50 mM, pH 6.8, TCPTP) and 5 µL of substrate (p‐NPP, 10 mM) for 15 min at 37 °C.

The test system of a further data set is HepG2 cells. Kind of data set: Cell viability with crystal violet. The format is cell-based. Particulars: 1 and 25 µM, 24 h. Here is the method:
Subsequently, we evaluated the same compounds in a HepG2 insulin‐resistant model.
A 96‐well plate was seeded with 3,000 cells per well and incubated for 24 h. Afterward, the cells were treated with test compounds at various concentrations for 24 h. After incubation, the media was removed, and 100 µL of 1% glutaraldehyde was added for 15 min. Afterward, the liquid was removed, and 50 µL of 0.5% crystal violet (dissolved in 25% methanol) was added for 30 min. The crystal violet staining solution was removed, and the plate was thoroughly washed with tap water. The precipitate was dissolved in a 10% acetic acid solution and mixed for 15 min. The absorbance was then measured at 590 nm using a plate reader (xMark Microplate Spectrophotometer—Bio‐Rad).
Figure S59. Cell viability assessment by crystal violet staining. HepG2 cell viability was evaluated
after treatment with the respective compounds at concentrations of 1 and 25 µM for 24 hours. Bar
graphs represent mean ± SEM.

In data set [1] the target is T3, hPTP1B1–400 (Homo sapiens, UniProt P18031).
T3 sequence (P18031 1-400): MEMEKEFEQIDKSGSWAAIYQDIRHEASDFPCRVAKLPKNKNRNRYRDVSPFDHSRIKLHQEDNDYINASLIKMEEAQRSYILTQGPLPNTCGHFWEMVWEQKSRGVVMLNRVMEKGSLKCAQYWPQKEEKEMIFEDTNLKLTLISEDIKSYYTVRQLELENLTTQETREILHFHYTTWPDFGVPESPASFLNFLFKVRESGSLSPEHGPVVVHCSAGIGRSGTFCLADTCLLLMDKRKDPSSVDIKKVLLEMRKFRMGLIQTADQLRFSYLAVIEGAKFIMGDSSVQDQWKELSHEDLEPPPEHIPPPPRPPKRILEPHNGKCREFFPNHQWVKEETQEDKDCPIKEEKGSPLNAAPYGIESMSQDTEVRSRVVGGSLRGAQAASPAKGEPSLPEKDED
Put plainly: Kinetic studies of PTP1B (hPTP1B1–400).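 Further: enzyme kinetics run across a range of substrate and inhibitor levels, control lacking inhibitor, triplicate runs, parameters derived by fitting Michaelis–Menten style equations.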
Protocol: Kinetic analyses were performed at various substrate and inhibitor concentrations.
The negative control was prepared with the enzyme and substrate in the absence of the inhibitor. Experiments were conducted in triplicate.^[ [30] ^] […] The kinetic parameters of enzyme inhibition, K m and V max, were determined by fitting the data to the Michaelis‐Menten model, Equation (3) (OriginPro 2018 (64‐bit) SR1). (3) y=VmaxX/Km+X´ where V max: is the maximum velocity, X: is the inhibitor concentration, K m: Michaelis constant.
(4) y=Vmax(X)/(Km/1+I/Ki)+X where V max: maximum velocity, X: substrate concentration, I: inhibitor concentration, K m: Michaelis constant, K i : inhibition constant.

Data set [2] deals with T3, hPTP1B1–400. Kind of data set: PTP1B activity assay, long form hPTP1B1–400 (p‐NPP). Format: biochemical. The conditions noted are these: for IC50: ± S.D, p‐NPP substrate, 15 min at 37 °C, triplicate. Set-up: hPTP1B1–400 (the long form with an intrinsically disordered C‐terminal regulatory domain). On the procedure:
as §1, §2

A further data set concerns PTP1B. Particulars: cited from earlier work.
On the set-up of data set [3]: method as in PMID 37628991. The conditions noted are these: cited from earlier work.
Data set [4] has as its system streptozotocin‐induced diabetic rats. On the set-up: method as in PMID 37628991. The conditions noted are these: cited from earlier work.
Where [5] appears, read: ± S.D, hPTP1B1–400 with inhibitor.
[6] abbreviates: streptozotocin‐induced diabetic rats.

In general, IC50 refers to the concentration that gives 50% inhibition. One may read the Ki as a dissociation constant, usually derived from enzyme kinetics or from competition with a known ligand. A higher Ki goes with lower affinity. Regarding `Cc1ccc(-n2ncc3c2C(C)(C)C2CCC4(C)C(C(=O)C=C5C6CC(C)(C(=O)O)CCC6(C)CCC54C)C2(C)C3)cc1` (stereo not shown) [Compound 5c], the results for the half-maximal inhibitory concentration (IC50) against hPTP1B1–285, at TCPTP and against hPTP1B1–400 [2] were 31600 ± 880 nM, above 100000 nM and 1570 ± 40 nM, respectively. Moreover, the HepG2 cell viability result with HepG2 cells is reported as “No significant differences; also recorded: did not compromise HepG2 cell viability”. The Ki at hPTP1B1–400 [1] (K i, ± S.D, hPTP1B1–400, p‐NPP 0.1 to 0.5 mM) is 220 nM and 224 nM. For the same compound, the Inhibition type entry on hPTP1B1–400 [1] (hPTP1B1–400) is listed as “uncompetitive inhibition”. Also, the K m on hPTP1B1–400 [1] (setting [5]) amounted to 1420 ± 320 µM. The compound also gave a V max on hPTP1B1–400 [1] (setting [5]) of 1.54 ± 0.28 mM/min.

`CC1(C(=O)O)CCC2(C)CCC3(C)C(=CC(=O)C4C5(C)Cc6c([nH]c7ccc(C(F)(F)F)cc67)C(C)(C)C5CCC43C)C2C1` (stereo not shown) [FC‐114]: on TCPTP, the “TCPTP inhibition (in words)” value is given as “did not inhibit TCPTP” and the concentration for half-maximal inhibition (IC50) is above 100000 nM. The HepG2 cell viability entry in the data set on HepG2 cells was “did not compromise HepG2 cell viability”. The HepG2 cell viability entry with HepG2 cells (listed as FC-114) was “No significant differences”. Besides, in the data set on PTP1B, the “times better potency against PTP1B than 18β‐GA” value was 25 times and the “type of PTP1B inhibition” value is “noncompetitive inhibitor”. The “doses at which safe” value in data set [3] is on record as “below 2000 mg kg^−1”. Besides, the antidiabetic activity entry in data set [4] was “showed antidiabetic activity”. Besides, the insulin levels result in data set [4] (streptozotocin‐induced diabetic rats, compared with glibenclamide) was “increased insulin levels more than glibenclamide”. In data set [4] (setting [6]), the HDL cholesterol result is listed as “without affecting HDL cholesterol” and the total cholesterol levels result is given as “significantly reduced total cholesterol levels”. Further, the IC50 against hPTP1B1–400 [2] turned out to be 480 ± 6 nM.

Turning to `Cc1ccc(-n2ncc3c2C(C)(C)C2CCC4(C)C(C(=O)C=C5C6CC(C)(C(=O)O)CCC6(C)CCC54C)C2(C)C3)cc1` (stereo not shown) [FC‐122], the IC50 against hPTP1B1–285 is 25100 ± 850 nM; on TCPTP, above 100000 nM; at hPTP1B1–400 [2], 1150 ± 40 nM. In addition, the “TCPTP inhibition (in words)” value on TCPTP is “did not inhibit TCPTP”. Besides, the figures for the HepG2 cell viability entry in the data set with HepG2 cells and in the data set on HepG2 cells (listed as FC-122) were “did not compromise HepG2 cell viability” and “No significant differences”, respectively. The “times better potency against PTP1B than 18β‐GA” value in the data set on PTP1B is given as 14 times. Moreover, in the data set with PTP1B, the “type of PTP1B inhibition” value is reported as “uncompetitive inhibitor”. Moreover, in data set [3], the “doses at which safe” value is listed as “below 2000 mg kg^−1”. Further, the antidiabetic activity entry in data set [4] is recorded as “showed antidiabetic activity”. Further, the “fold more potent than the alpha epimer” value on hPTP1B1–400 [2] (beta epimer vs alpha epimer (FC‐114 vs 3c, FC‐122 vs 5c), hPTP1B1–400 IC50) turned out to be 1.3 fold.
